# Read-outs that look alike come from different tables or passages of the source.
# Tests used:
# Du145 = test: LDH cell viability assay, prostate cancer cells; format: cell-based; conditions: Homo sapiens, DU-145; for IC50: Du145, 24 h, LDH assay
# Procedure: (§1) Normal prostate epithelial cells (PNT2), two prostate cancer cell lines (Du145 and PC3), human keratinocytes (HaCaT), two melanoma cell lines (A375 and HTB140) and two colon cancer cell lines (HT29 and Caco-2) were treated with 3 at a concentration range 1.0–50.0 µg/mL. Viability of the cells was estimated using lactate dehydrogenase (LDH) assay.
# (§2) Cytotoxic activity of 3 was tested on human cancer and normal cells, grouped in three panels: prostate, skin and gastrointestinal. The prostate panel comprised prostate cancer cell lines DU145 (ATCC HTB-81) and PC3 (ATCC CRL-1435) and prostate normal epithelial cells PNT2 (ECACC 95012613). Melanoma cell lines A375 (ATCC CRL-1619) and HTB140 (ATCC Hs 294T) together with human keratinocytes HaCaT (obtained as a kind gift of Prof. Marta Michalik, Department of Cell Biology, Jagiellonian University) were included in the skin panel. Two colon cancer cell lines, namely Caco-2 (ATCC HTB-37) and HT29 (ATCC HTB-38), constituted the gastrointestinal panel. Du145 cells were grown in a modified Eagle’s medium with low (1.0 g/L) glucose concentration; HT29, PC3 and PNT-2 cells were grown in Dulbecco’s modified Eagle’s medium (DMEM) and F12 HAM Nutrient Mixture; Caco-2 cells were grown in modified Eagle’s medium with nonessential amino acids (NEAA); and melanoma cells and keratinocytes were maintained in modified Eagle’s medium with high (4.5 g/L) glucose concentration. The culture media contained antibiotics and 10% fetal bovine serum (FBS). All cultures were maintained at 37 °C in a humidified, 5% CO2-containing atmosphere.
# (§3) The examined compound (3) was diluted in the culture media from freshly made stock solution in MeOH (10 mg/mL) to the working concentrations (from 0 to 50 μg/mL). Cell viability was determined as described previously. […] Then, the culture medium was replaced with the medium containing different concentrations of the assessed compound (1–50 μg/mL). After 24 h of incubation, the viability of the cells was determined using colorimetric lactate dehydrogenase (LDH) assay in comparison to the controls to which corresponding aliquots of MeOH diluted with culture media were added. Cells grown in the medium without the tested compound were used as control I (negative), and the positive control (control II) was obtained by incubation of the cells in the medium containing 1% Triton X-100. LDH released from the damaged cells into the cell culture medium was quantified by measuring the absorbance at 490 nm using a Synergy II Biotek microplate reader. Cytotoxicities of the examined compounds were calculated as follows: ((absorbance of the tested sample−absorbance of control I)/(absorbance of control II−absorbance of control I)) × 100. Results were means of three independent measurements (± SD). Doxorubicin (Ebewe Pharma G.m.b.H., Unterach, Austria) was used as a reference cytostatic drug.
# PC3 = test: LDH cell viability assay, prostate cancer cells; format: cell-based; conditions: Homo sapiens, PC-3; for IC50: PC3, 24 h, LDH assay
# Procedure: as §1, §2, §3
# [1] = LDH cell viability assay, keratinocytes; format: cell-based, human; conditions: human, HaCaT keratinocytes, read-out: Cell Viability (%) ± SD
# Procedure: as §1, §2, §3
# HaCaT = test: LDH cell viability assay, keratinocytes; format: cell-based, human; conditions: Homo sapiens, 24 h, LDH assay
# Procedure: as §1, §2, §3
# A375 = test: LDH cell viability assay, melanoma cells; format: cell-based; conditions: Homo sapiens, A-375; for IC50: A375, 24 h, LDH assay
# Procedure: as §1, §2, §3
# HTB140 = test: LDH cell viability assay, melanoma cells; format: cell-based; conditions: Homo sapiens; for IC50: HTB140, 24 h, LDH assay
# Procedure: as §1, §2, §3
# Caco-2 = test: LDH cell viability assay, colon cancer cells; format: cell-based; conditions: Homo sapiens; for IC50: Caco-2, 24 h, LDH assay
# Procedure: as §1, §2, §3
# HT29 = test: LDH cell viability assay, colon cancer cells; format: cell-based; conditions: Homo sapiens, HT-29; for IC50: HT29, 24 h, LDH assay
# Procedure: as §1, §2, §3
# [2] = tested on: normal and cancer cell lines (prostate, skin, gastrointestinal panels); test: LDH cytotoxicity, whole panel of normal and cancer cell lines; format: cell-based; conditions: Homo sapiens; 24 h treatment, cell density 1.5 × 10^4; doxorubicin: except PC3 cells; read-out: IC50 range over the cell lines
# Procedure: Cytotoxic activity of 3 was tested on human cancer and normal cells, grouped in three panels: prostate, skin and gastrointestinal. The prostate panel comprised prostate cancer cell lines DU145 (ATCC HTB-81) and PC3 (ATCC CRL-1435) and prostate normal epithelial cells PNT2 (ECACC 95012613). Melanoma cell lines A375 (ATCC CRL-1619) and HTB140 (ATCC Hs 294T) together with human keratinocytes HaCaT (obtained as a kind gift of Prof. Marta Michalik, Department of Cell Biology, Jagiellonian University) were included in the skin panel. Two colon cancer cell lines, namely Caco-2 (ATCC HTB-37) and HT29 (ATCC HTB-38), constituted the gastrointestinal panel. […]
# The examined compound (3) was diluted in the culture media from freshly made stock solution in MeOH (10 mg/mL) to the working concentrations (from 0 to 50 μg/mL). Cell viability was determined as described previously. […] Then, the culture medium was replaced with the medium containing different concentrations of the assessed compound (1–50 μg/mL). After 24 h of incubation, the viability of the cells was determined using colorimetric lactate dehydrogenase (LDH) assay in comparison to the controls to which corresponding aliquots of MeOH diluted with culture media were added. […] LDH released from the damaged cells into the cell culture medium was quantified by measuring the absorbance at 490 nm using a Synergy II Biotek microplate reader. […]
# HeLa cells = tested on: HeLa cells; parameters: method as in PMID 29751555; conditions: cell density 2 × 10^4, 96 h treatment; cited from earlier work
# A459 cells = tested on: A459 cells; parameters: method as in PMID 29751555; conditions: cited from earlier work
# [3] = value in parentheses, read-out: IC50 (IC50 µM) (converted)
compound,measurement,setting,value
C=C1C(=O)O[C@H]2[C@H]1[C@@H](O)[C@H](OC(=O)CC(C)C)[C@H](C)CCC(=O)[C@](C)(O)[C@@H]2OC(=O)C(C)C [Compound 3],viability at 1 µg/mL,"Du145; Du145, 1 µg/mL, 24 h, read-out: Cell Viability (%) ± SD",68.42 ± 0.52%
same,viability at 3 µg/mL,"Du145; Du145, 3 µg/mL, 24 h, read-out: Cell Viability (%) ± SD",56.3 ± 0.97%
same,viability at 5 µg/mL,"Du145; Du145, 5 µg/mL, 24 h, read-out: Cell Viability (%) ± SD",44.8 ± 2.05%
same,viability at 10 µg/mL,"Du145; Du145, 10 µg/mL, 24 h, read-out: Cell Viability (%) ± SD",37.7 ± 2.16%
same,viability at 20 µg/mL,"Du145; Du145, 20 µg/mL, 24 h, read-out: Cell Viability (%) ± SD",23.6 ± 1.54%
same,viability at 30 µg/mL,"Du145; Du145, 30 µg/mL, 24 h, read-out: Cell Viability (%) ± SD",12.5 ± 1.94%
same,viability at 50 µg/mL,"Du145; Du145, 50 µg/mL, 24 h, read-out: Cell Viability (%) ± SD",0.62 ± 0.58%
same,IC50,Du145; [3],10.8 µM
same,IC50,Du145; read-out: IC50,5.08 ± 1.14 µg/mL
same,viability at 1 µg/mL,"PC3; PC3, 1 µg/mL, 24 h, read-out: Cell Viability (%) ± SD",78.5 ± 1.08%
same,viability at 3 µg/mL,"PC3; PC3, 3 µg/mL, 24 h, read-out: Cell Viability (%) ± SD",65 ± 1.46%
same,viability at 5 µg/mL,"PC3; PC3, 5 µg/mL, 24 h, read-out: Cell Viability (%) ± SD",49.9 ± 2.02%
same,viability at 10 µg/mL,"PC3; PC3, 10 µg/mL, 24 h, read-out: Cell Viability (%) ± SD",37.2 ± 1.27%
same,viability at 20 µg/mL,"PC3; PC3, 20 µg/mL, 24 h, read-out: Cell Viability (%) ± SD",29.2 ± 1.89%
same,viability at 30 µg/mL,"PC3; PC3, 30 µg/mL, 24 h, read-out: Cell Viability (%) ± SD",5.42 ± 2.25%
same,viability at 50 µg/mL,"PC3; PC3, 50 µg/mL, 24 h, read-out: Cell Viability (%) ± SD",0.65 ± 0.33%
same,IC50,PC3; [3],19.1 µM
same,IC50,PC3; read-out: IC50,8.92 ± 1.02 µg/mL
same,"viability at 24 h, 1 µg/mL",[1]; 1 µg/mL,86.8 ± 1.7%
same,"viability at 24 h, 3 µg/mL",[1]; 3 µg/mL,74.5 ± 2.29%
same,"viability at 24 h, 5 µg/mL",[1]; 5 µg/mL,64.4 ± 1.33%
same,"viability at 24 h, 10 µg/mL",[1]; 10 µg/mL,30.5 ± 1.32%
same,"viability at 24 h, 20 µg/mL",[1]; 20 µg/mL,0.79 ± 0.72%
same,"viability at 24 h, 30 µg/mL",[1]; 30 µg/mL,0%
same,"viability at 24 h, 50 µg/mL",[1]; 50 µg/mL,0%
same,IC50,HaCaT; read-out: IC50,7.95 ± 0.15 µg/mL
same,IC50,HaCaT; [3],17 µM
same,viability at 1 µg/mL,"A375; A375, 1 µg/mL, 24 h, read-out: Cell Viability (%) ± SD",64.2 ± 1.13%
same,viability at 3 µg/mL,"A375; A375, 3 µg/mL, 24 h, read-out: Cell Viability (%) ± SD",55.4 ± 1.44%
same,viability at 5 µg/mL,"A375; A375, 5 µg/mL, 24 h, read-out: Cell Viability (%) ± SD",43.8 ± 1.69%
same,viability at 10 µg/mL,"A375; A375, 10 µg/mL, 24 h, read-out: Cell Viability (%) ± SD",33 ± 2.3%
same,viability at 20 µg/mL,"A375; A375, 20 µg/mL, 24 h, read-out: Cell Viability (%) ± SD",7.09 ± 1.78%
same,viability at 30 µg/mL,"A375; A375, 30 µg/mL, 24 h, read-out: Cell Viability (%) ± SD",0.82 ± 0.65%
same,viability at 50 µg/mL,"A375; A375, 50 µg/mL, 24 h, read-out: Cell Viability (%) ± SD",0%
same,IC50,A375; [3],20.4 µM
same,IC50,A375; read-out: IC50,9.57 ± 0.87 µg/mL
same,viability at 1 µg/mL,"HTB140; HTB140, 1 µg/mL, 24 h, read-out: Cell Viability (%) ± SD",81.4 ± 1.28%
same,viability at 3 µg/mL,"HTB140; HTB140, 3 µg/mL, 24 h, read-out: Cell Viability (%) ± SD",70.8 ± 2.37%
same,viability at 5 µg/mL,"HTB140; HTB140, 5 µg/mL, 24 h, read-out: Cell Viability (%) ± SD",50.9 ± 1.8%
same,viability at 10 µg/mL,"HTB140; HTB140, 10 µg/mL, 24 h, read-out: Cell Viability (%) ± SD",21.5 ± 2.53%
same,viability at 20 µg/mL,"HTB140; HTB140, 20 µg/mL, 24 h, read-out: Cell Viability (%) ± SD",4.1 ± 1.75%
same,viability at 30 µg/mL,"HTB140; HTB140, 30 µg/mL, 24 h, read-out: Cell Viability (%) ± SD",0.59 ± 0.78%
same,viability at 50 µg/mL,"HTB140; HTB140, 50 µg/mL, 24 h, read-out: Cell Viability (%) ± SD",0%
same,IC50,HTB140; [3],13.6 µM
same,IC50,HTB140; read-out: IC50,6.36 ± 0.38 µg/mL
same,viability at 1 µg/mL,"Caco-2; Caco-2, 1 µg/mL, 24 h, read-out: Cell Viability (%) ± SD",52.8 ± 1.62%
same,viability at 3 µg/mL,"Caco-2; Caco-2, 3 µg/mL, 24 h, read-out: Cell Viability (%) ± SD",38.6 ± 2.35%
same,viability at 5 µg/mL,"Caco-2; Caco-2, 5 µg/mL, 24 h, read-out: Cell Viability (%) ± SD",15.1 ± 2.91%
same,viability at 10 µg/mL,"Caco-2; Caco-2, 10 µg/mL, 24 h, read-out: Cell Viability (%) ± SD",1.96 ± 2.7%
same,viability at 20 µg/mL,"Caco-2; Caco-2, 20 µg/mL, 24 h, read-out: Cell Viability (%) ± SD",0.31 ± 0.43%
same,viability at 30 µg/mL,"Caco-2; Caco-2, 30 µg/mL, 24 h, read-out: Cell Viability (%) ± SD",0%
same,viability at 50 µg/mL,"Caco-2; Caco-2, 50 µg/mL, 24 h, read-out: Cell Viability (%) ± SD",0%
same,IC50,Caco-2; [3],8.29 µM
same,IC50,Caco-2; read-out: IC50,3.88 ± 0.1 µg/mL
same,viability at 1 µg/mL,"HT29; HT29, 1 µg/mL, 24 h, read-out: Cell Viability (%) ± SD",69.3 ± 1.75%
same,viability at 3 µg/mL,"HT29; HT29, 3 µg/mL, 24 h, read-out: Cell Viability (%) ± SD",58 ± 1.66%
same,viability at 5 µg/mL,"HT29; HT29, 5 µg/mL, 24 h, read-out: Cell Viability (%) ± SD",49.2 ± 2%
same,viability at 10 µg/mL,"HT29; HT29, 10 µg/mL, 24 h, read-out: Cell Viability (%) ± SD",38 ± 2.29%
same,viability at 20 µg/mL,"HT29; HT29, 20 µg/mL, 24 h, read-out: Cell Viability (%) ± SD",24.4 ± 1.1%
same,viability at 30 µg/mL,"HT29; HT29, 30 µg/mL, 24 h, read-out: Cell Viability (%) ± SD",10.4 ± 1.09%
same,viability at 50 µg/mL,"HT29; HT29, 50 µg/mL, 24 h, read-out: Cell Viability (%) ± SD",0.79 ± 0.78%
same,IC50,HT29; [3],13.3 µM
same,IC50,HT29; read-out: IC50,6.23 ± 0.89 µg/mL
same,IC50,[2],8.3 to 35 µM
same,IC50,HeLa cells,29.4 µM
same,Cytotoxicity,A459 cells,resistant

# Reference: publication PMC8347481, “Germacranolides from Carpesium divaricatum: Some New Data on Cytotoxic and Anti-Inflammatory Activity” (Molecules, 2021)
